# Source: US12616203B2, “Use of 3-isoxazolidinones compounds as selective herbicides” (FMC Corporation, priority 2014, dated 2026)
# “Also recorded” adds a separate entry of the source.
# Key:
# weeds; Wheat and canola [1] = experiment: Ex28 PRE greenhouse; assay type: in vivo; settings: 28 DAT, rate in the words
# Text: The tested weeds in this study are redroot pigweed (Amaranth retroflexus, AMARE), Italian ryegrass (Lolium perenne. multiflorum, LOLMU), wild mustard (Sinapis arvensis, SINAR), annual bluegrass (Poa annua, POAAN), wild oat (Avena fatua, AVEFA), blackgrass (Alopecurus myosuroides, ALOMY), common lambsquarters (Chenopodium album, CHEAL), littleseed canarygrass (Phalaris minor, PHAMI), common chickweed (Stellaria media, STEME), corn poppy (Papaver rhoeas, PAPRH), and silky windgrass (Apera spica-venti, APESV). The tested crops are wheat and canola.
# Additionally, 2,4 DC was applied alone at 400 g ai/ha.
# (§1) Treatments were applied before the emergence of redroot pigweed, Italian ryegrass, wild oat, blackgrass, littleseed canarygrass, common chickweed, common lambsquarters, corn poppy, wild mustard, annual bluegrass, silky windgrass, canola, and wheat. […] Flats were watered and fertilized routinely after treatment application.
# Wild mustard = experiment: Ex35 PRE 2,4-DC + dimethachlor + napropamide, % control 28 DAT, Colby; assay type: in vivo, Sinapis arvensis
# Text: Crops screened were wheat and canola.
# weeds = experiment: Ex18 PRE greenhouse; assay type: in vivo; settings: weed and rate in the words
# Cheat = experiment: Ex18 PRE 2,4-DC + clomazone, % control 28 DAT, Colby; assay type: in vivo, Bromus secalinus
# Text: Additional treatments included application of metazachlor (Butisan®, 43.1%) at 750 g ai/ha, napropamide (Devrinol DF®, 50%) at 1260 g ai/ha, and dimethachlor (Teridox®, 48%) at 1000 g ai/ha. […] Treatments were applied just after the seeding of annual bluegrass, cheat, wild oat, quackgrass, field violet, blackgrass, littleseed canarygrass, silky windgrass, yellow foxtail, and goosegrass. […] Flats were watered and fertilized routinely after treatment application. Each treatment was replicated three times.
# canola and wheat = experiment: Ex43 PRE crop safety; assay type: in vivo; settings: crop and rate in the words
# Italian ryegrass (IR) = experiment: Ex2 PRE greenhouse, % control; assay type: in vivo, Lolium perenne. multiflorum; settings: 28 DAT, g ai/ha by row: r12-40 2,4-DC 31.25/62.5/125/250/375 (3 rows each) + metazachlor 250/500/750 (cycling)
# Experimental: Test compositions containing 2,4 DC Example 1B and metazachlor (Butisan® S, 43.1% active ingredient, BASF) and mixtures of 2-(2,4-dichlorophenyl)methyl-4,4-dimethyl-3-isoxazolidinone and metazachlor, were diluted with water to provide the appropriate test rate concentrations.
# The test crops were wheat and canola (Brassica napus), the test weeds were Italian ryegrass (IR) (Lolium perenne. multiflorum), annual bluegrass (AB) (Poa annua), common lambsquarters (CL) (Chenopodium album), littleseed canarygrass (LC) (Phalaris minor), common chickweed (CC) (Stellaria media), and corn poppy (CP) (Papaver rhoeas).
# For pre-emergence testing, four disposable fiber flats (6″ by 10″) for each rate of application of each herbicide solution were filled with top soil, to which seeds of each species were planted in furrows made by a template pressed on the top of the soil. The furrows were covered with soil after planting the seed and were watered well before application of the test compounds.
# Fiber flats designated for treatment were placed in a spray chamber having a static platform and a movable sprayer and height of the spray nozzle was 10.5 inches above the soil level. Once the sprayer was calibrated using water for spray volume of 30 gallons per acre, flats were sprayed with sprayer at a speed to receive a coverage equivalent of 30 gallons per acre. The application rates are those shown in Table 1 below for the individual herbicidal solutions and the herbicide compositions of the present invention. The pre-emergence flats were immediately placed in the greenhouse and watered lightly after treatment. Thereafter they were regularly watered and fertilized for the duration of the test.
# The control of weeds was evaluated in each experimental test at 21 days after treatment (DAT) for corn poppy and wheat and 28 DAT for all other species. The results, shown as an average of the replications were compared with results observed in untreated control flats in the same tests.
# Percent control was determined by a method similar to the 0 to 100 rating system disclosed in “Research Methods in Weed Science,” 2nd ed., B. Truelove, Ed.; Southern Weed Science Society; Auburn University, Auburn, Ala., 1977.
# weeds; Wheat and canola [2] = experiment: Ex29 PRE greenhouse; assay type: in vivo; settings: 28 DAT, weed, crop, rate in the words
# Text: The tested weeds include Italian ryegrass (Lolium perenne. multiflorum, LOLMU), wild mustard (Sinapis arvensis, SINAR), annual bluegrass (Poa annua, POAAN), wild oat (Avena fatua, AVEFA), blackgrass (Alopecurus myosuroides, ALOMY), common lambsquarters (Chenopodium album, CHEAL), littleseed canarygrass (Phalaris minor, PHAMI), common chickweed (Stellaria media, STEME), corn poppy (Papaver rhoeas, PAPRH), redroot pigweed (Amaranthus retroflexus, AMARE), silky windgrass (Apera spica-venti, APSEV), wild buckwheat (Polygonum convolvulus, POLCO). The crops teased were Wheat and canola.
# as §1, with “of” for “of redroot pigweed,”, “oat, wild buckwheat,” for “oat,”, “poppy, silky windgrass, redroot pigweed,” for “poppy,”, “bluegrass,” for “bluegrass, silky windgrass,”
# Italian ryegrass = experiment: Ex36 POST 2,4-DC + metsulfuron-methyl, % control 28 DAT, Colby; assay type: in vivo, Lolium perenne L. ssp. multiflorum
# Text: Crops screened were wheat and barley.
# wheat = experiment: Ex40 POST 2,4-DC + metsulfuron-methyl, crop injury 7 DAT; assay type: in vivo
# Experimental: (§2) Treatments were applied to barley and wheat crops.
# (§3) Non-ionic surfactant (NIS) was added to all treatments at 0.5% v/v. All plant species were direct seeded into 3″ plastic pots using metro-mix as growth media. At treatment common lambsquarters was 1.75″, common chickweed was 2″, wild mustard was 2.25″, wild oat was 5.5″, wild buckwheat was 2-5″, Italian ryegrass was 2-3″, wheat was 5.5″ and barley was 4.5″ in height. Plants were watered well before application and not watered 24 h after application. Plants were watered and fertilized routinely after treatment application. Each treatment was replicated four times. Treated flats were placed in randomized block design in the greenhouse.
# Barley = experiment: as above; assay type: in vivo
# Experimental: as §2, §3
smiles,measurement,setting,value
"CC1(C)CON(Cc2ccc(Cl)cc2Cl)C1=O [2,4-DC, 2-(2,4-dichlorophenyl)methyl-4,4-dimethyl-3-isoxazolidinone]",weed control / crop safety in words,weeds; Wheat and canola [1],"alone provided control of pigweed and corn poppy at 400 g, Italian ryegrass at ≥200 g, blackgrass and lambsquarters at 400 g, and chickweed at all rates; also recorded: caused greater than 10% injury to canola at all rates and 2,4 DC was safe on wheat up to 200 g ai/ha"
same,X,"Wild mustard; 2,4-DC alone 50 g ai/ha",12%
same,X,"Wild mustard; 2,4-DC alone 100 g ai/ha",37%
same,X,"Wild mustard; 2,4-DC alone 200 g ai/ha",47%
same,weed control in words,weeds,controlled goosegrass at ≥170 g ai/ha
same,X,"Cheat; 2,4-DC alone 125 g ai/ha",6%
same,X,"Cheat; 2,4-DC alone 170 g ai/ha",11%
same,X,"Cheat; 2,4-DC alone 210 g ai/ha",12%
same,X,"Cheat; 2,4-DC alone 250 g ai/ha",25%
same,crop safety in words,canola and wheat,alone was safe (≤10% injury) on canola at ≤200 g ai/ha and safe on wheat at ≤100 g
same,% Control IR,"Italian ryegrass (IR); r42-46 2,4-DC 31.25/62.5/125/250/375, r47-49 metazachlor 250/500/750, 31.25 g ai/ha",57%
same,% Control IR,"Italian ryegrass (IR); r42-46 2,4-DC 31.25/62.5/125/250/375, r47-49 metazachlor 250/500/750, 62.5 g ai/ha",68%
same,% Control IR,"Italian ryegrass (IR); r42-46 2,4-DC 31.25/62.5/125/250/375, r47-49 metazachlor 250/500/750, 125 g ai/ha",85%
same,% Control IR,"Italian ryegrass (IR); r42-46 2,4-DC 31.25/62.5/125/250/375, r47-49 metazachlor 250/500/750, 250 g ai/ha",98%
same,% Control IR,"Italian ryegrass (IR); r42-46 2,4-DC 31.25/62.5/125/250/375, r47-49 metazachlor 250/500/750, 375 g ai/ha",99%
same,weed control / crop safety in words,weeds; Wheat and canola [2],"alone gave control of pigweed and Italian ryegrass at ≥200 g ai/ha, corn poppy and wild oat at 400 g, blackgrass at ≥100 g, and common chickweed at all rates"
same,X,"Italian ryegrass; 2,4-DC alone 50 g ai/ha",22%
same,X,"Italian ryegrass; 2,4-DC alone 100 g ai/ha",18%
same,X,"Italian ryegrass; 2,4-DC alone 200 g ai/ha",29%
same,"X (% crop injury, 2,4-DC alone)","wheat; POST, 2,4-DC 125 g ai/ha",5%
same,"X (% crop injury, 2,4-DC alone)","wheat; POST, 2,4-DC 170 g ai/ha",14%
same,"X (% crop injury, 2,4-DC alone)","wheat; POST, 2,4-DC 210 g ai/ha",17%
same,"X (% crop injury, 2,4-DC alone)","wheat; POST, 2,4-DC 250 g ai/ha",31%
same,"X (% crop injury, 2,4-DC alone)","Barley; POST, 2,4-DC 125 g ai/ha",4%
same,"X (% crop injury, 2,4-DC alone)","Barley; POST, 2,4-DC 170 g ai/ha",6%
same,"X (% crop injury, 2,4-DC alone)","Barley; POST, 2,4-DC 210 g ai/ha",8%
same,"X (% crop injury, 2,4-DC alone)","Barley; POST, 2,4-DC 250 g ai/ha",14%
